# Where two headings read alike, the source gives them in different places. Residues, ends and D or L forms follow the SMILES beside them. *: point of attachment. Cbz = O=C(OCc1ccccc1)*; CHN2 = [N-]=[N+]=C*
# Key:
# vWF-cleaving protease [1] = molecular target: T1, vWF-cleaving protease (Homo sapiens, UniProt Q76LX8); experiment: Influence of metal ions on the activity of the vWF-cleaving protease; format: biochemical; details: 95 μl protease preincubated 15 minutes at 37° C. with 5 μl of 0.2 M salt solution
# T1 construct: Purification of Protease from Plasma; from tissue; host or cells: plasma (fibrinogen removed before chromatography)
# T1 sequence (Q76LX8 75-1427): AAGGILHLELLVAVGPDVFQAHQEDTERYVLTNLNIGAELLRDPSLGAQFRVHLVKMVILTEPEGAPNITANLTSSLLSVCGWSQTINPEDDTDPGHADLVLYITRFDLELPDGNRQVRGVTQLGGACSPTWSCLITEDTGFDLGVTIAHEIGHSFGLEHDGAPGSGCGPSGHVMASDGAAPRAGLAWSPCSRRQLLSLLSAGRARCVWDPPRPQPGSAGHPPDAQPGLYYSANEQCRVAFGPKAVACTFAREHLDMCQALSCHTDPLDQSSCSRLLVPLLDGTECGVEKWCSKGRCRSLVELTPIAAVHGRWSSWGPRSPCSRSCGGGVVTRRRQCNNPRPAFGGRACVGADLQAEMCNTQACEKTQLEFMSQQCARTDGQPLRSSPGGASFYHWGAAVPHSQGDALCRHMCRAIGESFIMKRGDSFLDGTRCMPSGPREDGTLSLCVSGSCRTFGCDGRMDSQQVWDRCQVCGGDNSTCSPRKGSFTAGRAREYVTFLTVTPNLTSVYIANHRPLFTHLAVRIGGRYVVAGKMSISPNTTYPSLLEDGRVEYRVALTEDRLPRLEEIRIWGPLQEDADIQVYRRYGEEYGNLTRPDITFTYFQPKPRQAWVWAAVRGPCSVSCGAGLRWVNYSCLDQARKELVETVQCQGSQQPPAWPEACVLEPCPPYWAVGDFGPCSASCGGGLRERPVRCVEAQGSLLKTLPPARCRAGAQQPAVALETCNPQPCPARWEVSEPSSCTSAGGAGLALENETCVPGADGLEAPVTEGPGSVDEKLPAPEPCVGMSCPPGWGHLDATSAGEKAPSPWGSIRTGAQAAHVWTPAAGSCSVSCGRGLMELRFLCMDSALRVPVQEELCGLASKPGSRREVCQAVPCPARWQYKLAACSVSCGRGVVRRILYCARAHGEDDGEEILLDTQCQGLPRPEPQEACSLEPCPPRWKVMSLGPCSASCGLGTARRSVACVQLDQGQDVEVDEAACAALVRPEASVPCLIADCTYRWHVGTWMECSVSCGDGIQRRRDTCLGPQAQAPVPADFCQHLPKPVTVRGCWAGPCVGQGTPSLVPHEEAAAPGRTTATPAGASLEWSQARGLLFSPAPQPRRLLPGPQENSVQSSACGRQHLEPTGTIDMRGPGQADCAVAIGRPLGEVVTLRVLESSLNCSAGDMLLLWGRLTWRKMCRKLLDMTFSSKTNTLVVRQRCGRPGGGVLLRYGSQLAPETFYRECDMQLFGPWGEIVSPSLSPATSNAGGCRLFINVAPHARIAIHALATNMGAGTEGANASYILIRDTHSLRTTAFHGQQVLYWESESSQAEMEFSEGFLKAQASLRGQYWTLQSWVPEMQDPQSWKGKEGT
# vWF-cleaving protease [2] = molecular target: T1, vWF-cleaving protease; experiment: Effect of protease inhibitors on vWF degradation; format: biochemical; details: for effect of peptidyl-diazomethylketone inhibitors on proteolytic degradation of vWF: final concentration 0.1 mM during preincubation with barium-activated protease
# vWF protease = molecular target: T2, vWF protease (Homo sapiens, UniProt Q76LX8); experiment: Degradation of vWF by the vWF protease in the presence of aprotinin or PPACK; format: biochemical; details: for degradation of recombinant vWF by the protease in the presence of inhibitor: inhibitor concentration at which no protease activity detected with a chromogenic substrate of plasmin
# T2 construct: the preparation prepared according to the invention with the vWF-specific protease; from tissue
# T2 sequence (Q76LX8 75-1427): T1 sequence (Q76LX8 75-1427)
# Procedure: The concentration of aprotinin and PPACK was chosen such that no protease activity could be detected with a chromogenic substrate of plasmin.
# In this experiment, the degradation products of the recombinant vWF with the protease according to the invention were the satellite bands developed and the central bands. Actually all bands were very similar to plasmatic vWF (FIG. 14 (panel C)).
# (§1) Analysis of the r-vWF and its proteolytic degradation products was performed on 1% and 2% agarose gels, also according to the method of Ruggeri et al. (Blood 57 (1981), 1140-1143). The vWF multimers were made visible by immunoenzymatic staining according to Aihara et al. (Thromb. Haemostas. 55 (1986), 263-267). A rabbit-anti-von Willebrand factor-antiserum (from Dakopatts, Glostrup, Denmark) was used as the primary antibody, and an alkaline phosphatase-conjugated, affinity-purified goat-anti-rabbit IgG H+L-antibody (from Axell Accurate Chemical and Scientific Corp, Westburg, N.Y.) served as the secondary antibody. Staining of the protein bands was effected by means of the nitroblue tetrazolium/bromochloro-indolyl-phosphate substrate system.
# plasmin = molecular target: T3, plasmin (Homo sapiens, UniProt P00747); experiment: Degradation of vWF with plasmin with and without inhibitors; format: biochemical; details: for effect of inhibitor on plasmin-induced reduction of high multimers of cryoprecipitate: incubation for more than 8 hours; for effect of inhibitor on plasmin degradation of r-vWF: plasmin reduced to 1:10, about 20 hours
# T3 construct: plasmin being diluted to 0.2 U/ml in 20 mM TBS buffer, pH 8.3
# Procedure: as §1
# [3] = Incubation of r-vWF in vWF-deficient human plasma; format: in vitro ADME
# Procedure: Further tests investigated whether a proteolytic degradation of r-vWF took place during incubation with human plasma (cf. FIG. 18). For this, the r-vWF preparation was mixed with equal volumes of a vWF-deficient plasma (cf. FIG. 18 (panel A)) and incubated for 48 hours, samples being taken at various times. No change of the r-vWF over time could be detected.
# as §1
# T3 sequence (P00747 581-810): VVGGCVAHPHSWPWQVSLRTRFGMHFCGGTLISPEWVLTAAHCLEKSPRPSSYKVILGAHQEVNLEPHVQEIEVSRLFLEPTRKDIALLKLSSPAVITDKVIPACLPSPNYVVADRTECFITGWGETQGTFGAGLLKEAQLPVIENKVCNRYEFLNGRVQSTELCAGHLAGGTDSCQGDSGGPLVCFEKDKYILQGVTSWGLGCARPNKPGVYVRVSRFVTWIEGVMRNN
# T3 sequence (P00747 97-580): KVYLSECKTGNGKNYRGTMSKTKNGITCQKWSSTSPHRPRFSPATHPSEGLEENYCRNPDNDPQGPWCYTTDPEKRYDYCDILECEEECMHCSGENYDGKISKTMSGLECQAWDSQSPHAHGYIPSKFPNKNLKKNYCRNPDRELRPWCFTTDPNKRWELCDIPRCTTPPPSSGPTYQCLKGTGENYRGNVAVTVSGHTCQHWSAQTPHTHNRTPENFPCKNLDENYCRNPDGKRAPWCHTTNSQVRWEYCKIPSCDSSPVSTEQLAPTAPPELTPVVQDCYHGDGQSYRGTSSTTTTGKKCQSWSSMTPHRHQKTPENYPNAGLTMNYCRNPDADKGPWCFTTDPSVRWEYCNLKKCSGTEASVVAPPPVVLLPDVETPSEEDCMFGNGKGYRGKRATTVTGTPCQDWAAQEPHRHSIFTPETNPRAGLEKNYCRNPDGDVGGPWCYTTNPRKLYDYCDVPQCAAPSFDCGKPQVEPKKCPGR
compound,measurement,setting,value
"[Ba+2].[Cl-].[Cl-] [Ba^2+, BaCl2]",activation of the protease by metal ions,vWF-cleaving protease [1],substantial activation
"[Ca+2].[Cl-].[Cl-] [Ca^2+, CaCl2]",activation of the protease by metal ions,vWF-cleaving protease [1],substantial activation
"CC(=O)[O-].CC(=O)[O-].[Cd+2] [Cd^2+, Cd(CH3 COO)2]",activation of the protease by metal ions,vWF-cleaving protease [1],no activation
"O=S(=O)([O-])[O-].[Co+2] [Co^2+, CoSO4]",activation of the protease by metal ions,vWF-cleaving protease [1],no activation
"O=S(=O)([O-])[O-].[Cu+2] [Cu^2+, CuSO4]",activation of the protease by metal ions,vWF-cleaving protease [1],no activation
O=C(O)CN(CCN(CC(=O)O)CC(=O)O)CC(=O)O [EDTA],inhibition of the barium-preincubated protease (vWF degradation by SDS agarose electrophoresis and immunoblotting),vWF-cleaving protease [2],inhibit the barium-preincubated protease completely
"O=C(O)CN(CCOCCOCCN(CC(=O)O)CC(=O)O)CC(=O)O [ESTA, EGTA]",inhibition of the barium-preincubated protease (vWF degradation by SDS agarose electrophoresis and immunoblotting),"vWF-cleaving protease [2]; inhibitor final concentration 10 mM, 15 minutes preincubation at 37° C.",inhibit the barium-preincubated protease completely
"NC(=O)CI [IAA, iodoncetamide]",inhibition of the barium-preincubated protease (vWF degradation by SDS agarose electrophoresis and immunoblotting),vWF-cleaving protease [2],did not result in protease inhibition
"[Cl-].[Cl-].[Mg+2] [Mg^2+, MgCl2]",activation of the protease by metal ions,vWF-cleaving protease [1],slight activation
"[Cl][Mn][Cl] [Mn^2+, MnCl2]",activation of the protease by metal ions,vWF-cleaving protease [1],no activation
"CCN1C(=O)C=CC1=O [NEM, N-ethylmaleimide]",inhibition of the barium-preincubated protease (vWF degradation by SDS agarose electrophoresis and immunoblotting),vWF-cleaving protease [2],did not result in protease inhibition
same,protease inhibition with inhibitor also incorporated into the dialysis solution,vWF-cleaving protease [2],partial protease inhibition
"[Cl][Ni][Cl] [Ni^2+, NiCl2]",activation of the protease by metal ions,vWF-cleaving protease [1],no activation
"O=S(=O)(F)Cc1ccccc1 [PMSF, phenylmethylsulfonyl fluoride]",inhibition of the barium-preincubated protease (vWF degradation),vWF-cleaving protease [2],no inhibition
"N=C(N)NCCC[C@H](NC(=O)[C@@H]1CCCN1C(=O)[C@H](N)Cc1ccccc1)C(=O)CCl [PPACK, Diphenylalanylprolyl arginine-chloromethylketone]",degradation of cryoprecipitate vWF by vWF protease on addition of inhibitor,vWF protease,could not be prevented
same,degradation of recombinant vWF by the protease in the presence of inhibitor,vWF protease,degraded identically
same,effect of inhibitor on plasmin-induced reduction of high multimers of cryoprecipitate,plasmin,prevented
same,effect of inhibitor on plasmin degradation of r-vWF,plasmin,prevented
"[Cl-].[Cl-].[Sr+2] [Sr^2+, SrCl2]",activation of the protease by metal ions,vWF-cleaving protease [1],substantial activation
"Cc1ccc(S(=O)(=O)N[C@@H](CCCCN)C(=O)CCl)cc1 [TLCK, N-α-p-tosyl-L-lysine-chloromethylketone]",inhibition of the barium-preincubated protease (vWF degradation),vWF-cleaving protease [2],no inhibition
"Cc1ccc(S(=O)(=O)N[C@@H](Cc2ccccc2)C(=O)CCl)cc1 [TPCK, N-α-p-tosyl-L-phenylalanine-chloromethylketone]",inhibition of the barium-preincubated protease (vWF degradation),"vWF-cleaving protease [2]; inhibitor 1 mM, 15 minutes preincubation at 37° C.",no inhibition
CC(C)C[C@H](NC(=O)OCc1ccccc1)C(=O)N[C@@H](CC(C)C)C(=O)N[C@@H](Cc1ccc(O)cc1)C(=O)C=[N+]=[N-] [Z-Leu-Leu-Tyr-CHN2] (Cbz-Leu-Leu-Tyr-CHN2),effect of peptidyl-diazomethylketone inhibitors on proteolytic degradation of vWF,vWF-cleaving protease [2],active in the presence
"[N-]=[N+]=CC(=O)[C@H](Cc1ccccc1)NC(=O)[C@H](Cc1ccccc1)NC(=O)OCc1ccccc1 [Z-Phe-Phe-CH2, Z-Phe-Phe-CHN2] (Cbz-Phe-Phe-CHN2)",effect of peptidyl-diazomethylketone inhibitors on proteolytic degradation of vWF,vWF-cleaving protease [2],impaired the proteolytic degradation of vWF
CC(C)[C@H](NC(=O)OCc1ccccc1)C(=O)N[C@H](C(=O)N[C@@H](Cc1ccc(O)cc1)C(=O)C=[N+]=[N-])C(C)C [Z-Val-Val-Tyr-CHN2] (Cbz-Val-Val-Tyr-CHN2),effect of peptidyl-diazomethylketone inhibitors on proteolytic degradation of vWF,vWF-cleaving protease [2],impaired the proteolytic degradation of vWF
"[Cl-].[Cl-].[Zn+2] [Zn^2+, ZnCl2]",activation of the protease by metal ions,vWF-cleaving protease [1],no activation
"O=C(O)CC(O)(CC(=O)O)C(=O)O [citrate, Na3 -citrate]",inhibition of the barium-preincubated protease (vWF degradation by SDS agarose electrophoresis and immunoblotting),vWF-cleaving protease [2],partial inhibition
CC(=O)N[C@@H](CC(C)C)C(=O)N[C@@H](CC(C)C)C(=O)N[C@H](C=O)CCCNC(=N)N [leupeptin],inhibition of the barium-preincubated protease (vWF degradation),vWF-cleaving protease [2],no inhibition
aprotinin,inhibition of the barium-preincubated protease (vWF degradation),vWF-cleaving protease [2],no inhibition
same,degradation of cryoprecipitate vWF by vWF protease on addition of inhibitor,vWF protease,could not be prevented
same,degradation of recombinant vWF by the protease in the presence of inhibitor,vWF protease,degraded identically
same,effect of inhibitor on plasmin-induced reduction of high multimers of cryoprecipitate,plasmin,prevented
same,effect of inhibitor on plasmin degradation of r-vWF,plasmin,prevented
"r-vWF: Recombinant vWF factor produced according to FEBS-Letters 375, 259-262 (1995), singlet structure",change of r-vWF structure in control preparation,[3]; equal length of time at 37° C. in buffer media,no change of structure
same,change of r-vWF over time,"[3]; mixed with equal volume of vWF-deficient plasma, incubated for 48 hours",No change

# Reference: patent US6068838A, “Purified multimerase” (Baxter Aktiengesellschaft, priority 1996, dated 2000)
